# Literature values, collected in patent publication US20160081937A1, “TABLET WITH INCREASED DRUG LOAD OF ODANACATIB” (SANDOZ AG, priority 2013, published 2016).
# What was measured:
# [1] = crystalline odanacatib
# [2] = in vivo
smiles,measurement,setting,value
"CC(C)(F)C[C@H](N[C@@H](c1ccc(-c2ccc(S(C)(=O)=O)cc2)cc1)C(F)(F)F)C(=O)NC1(C#N)CC1 [Odanacatib, odanacatib]",aqueous solubility,[1],low
same,oral bioavailability,[2],"highly dependable on vehicle, dosage and sample preparation"
same,"lumbar spine, hip and femoral neck BMD",patients treated once weekly with 20-50 mg,increases
same,"BMD at the same sites (lumbar spine, hip, femoral neck)",patients treated with low doses,decreases
